In data set [1] the target is T1, Cytoglobin (Cygb) (Homo sapiens, UniProt Q8WWM9). In kind it is biochemical. The note with it: cygb:lipid liposomes.
Data set [2] addresses Cytoglobin (Cygb Δ1-15Δ174-190) (Homo sapiens, UniProt Q8WWM9, Δ1-15Δ174-190). In words: differential absorbance spectroscopy titration, […] fit. In kind it is binding.
The target in data set [3] is Cytoglobin (Cygb), wild type (Homo sapiens, UniProt Q8WWM9). The data set is described as above. In kind it is binding.
Data set [4] deals with T1, Cytoglobin (Cygb). Nature of the data set: LC-MS/MS of lipid oxidation products by Cygb/H2O2. Format: biochemical.

T1 sequence (Q8WWM9 whole entry): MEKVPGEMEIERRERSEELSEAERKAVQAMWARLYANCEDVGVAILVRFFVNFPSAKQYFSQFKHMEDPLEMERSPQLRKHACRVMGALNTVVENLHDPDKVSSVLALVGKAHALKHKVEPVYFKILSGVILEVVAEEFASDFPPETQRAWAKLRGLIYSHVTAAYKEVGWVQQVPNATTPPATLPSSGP
Sequence of Cytoglobin (Cygb), wild type (Q8WWM9 whole entry): as above
Sequence of Cytoglobin (Cygb Δ1-15Δ174-190) (Q8WWM9 16-173, stated change not applied): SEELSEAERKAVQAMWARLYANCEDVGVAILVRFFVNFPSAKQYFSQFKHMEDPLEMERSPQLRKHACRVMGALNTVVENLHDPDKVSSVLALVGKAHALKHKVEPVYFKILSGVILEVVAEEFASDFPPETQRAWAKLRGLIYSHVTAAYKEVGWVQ

For `CCCCCCCC/C=C\CCCCCCCC(=O)OC[C@H](COP(=O)(O)O)OC(=O)CCCCCCC/C=C\CCCCCCCC` [DOPA, 1,2-dioleoyl-sn-glycero-3-phosphate], the “activation of peroxidase activity, Amplex Red oxidation, 1:25 Cygb:lipid liposom” value at Cytoglobin (Cygb) [1] was found to be 1.6 fold increase in rate.
In general, Kd refers to the concentration at which binding is half-saturated. A high value points to weaker binding. Take `CCCCCCCC/C=C\CCCCCCCC(=O)O` [OA, oleic acid]: the figures for the Kd in data set [2] and in data set [3] were 3 ± 1.8 µM and 2.3 ± 1 µM, respectively.
Take `CCCCC/C=C\C/C=C\C/C=C\C/C=C\CCCC(=O)O[C@H](COC(=O)CCCCCCCCCCCCCCCCC)COP(=O)(O)O` [SAPA, 1-stearoyl-2-arachidonoyl-sn-glycero-3-phosphate]: at Cytoglobin (Cygb) [4], the “LC-MS/MS of lipid oxidation products by Cygb/H2O2” value is on record as 5.6 ± 0.1 picomoles of oxidation products.
